# In US8906952B2, “Indole derivative or pharmaceutically acceptable salt thereof, preparation method thereof, and pharmaceutical composition for preventing or treating metabolic diseases containing same as active ingredient” (Korea Research Institute of Bioscience and Biotechnology, priority 2011, dated 2014):
# System: ICR mice
# Assay: Acute toxicity assay
# Format: in vivo
# Conditions: oral 100, 250 mg/kg; observation over two weeks
# Description: In order to investigate acute toxicity of the indole derivatives according to the present invention, mice (20±5 g, Central Lab. Animal Inc.) and rats (235±10 g, Central Lab. Animal Inc.) were used for the acute toxicity assay of compound 1.
# A total of […] of 10 ICR mice were orally administered with compound 1 according to the present invention by the dose of 100, 250 mg/kg, respectively.
compound,measurement,value
"CC(C)N(NC(=O)c1ccccc1)C(=O)/C=C/c1cn(C(=O)OC(C)(C)C)c2ccccc12 [Example 1, (E)-tert-butyl 3-(3-(2-benzoyl-1-isopropylhydrazinyl)-3-oxoprop-1-enyl)-1H-indole-1-carboxylate]",death,no death
same,difference on the outside,nor did the groups show any specific difference on the outside
